According to patent publication US9492471B2, “Methods of treating a disease or disorder associated with Bruton'S Tyrosine Kinase” (Celgene Avilomics Research, Inc., priority 2013, dated 2016):
Read-outs that look alike come from different tables or passages of the source.

Legend:
Experiment in all cases: HotSpot kinase profiling
Assay type in all cases: biochemical
[1] = target: T1, CLK1 (Homo sapiens, UniProt P49759)
T1 construct: purchased Reaction Biology Corp
Outline: (§1)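 Activity is measured by radiolabel transfer captured on P81 filters after a 2 h room-temperature reaction of kinase, substrate and cofactors. Values are percent inhibition against DMSO.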

[2] = target: T2, HPK1/MAP4K1 (Homo sapiens, UniProt Q92918)
T2 construct: purchased Reaction Biology Corp
T2 sequence (Q92918 whole entry): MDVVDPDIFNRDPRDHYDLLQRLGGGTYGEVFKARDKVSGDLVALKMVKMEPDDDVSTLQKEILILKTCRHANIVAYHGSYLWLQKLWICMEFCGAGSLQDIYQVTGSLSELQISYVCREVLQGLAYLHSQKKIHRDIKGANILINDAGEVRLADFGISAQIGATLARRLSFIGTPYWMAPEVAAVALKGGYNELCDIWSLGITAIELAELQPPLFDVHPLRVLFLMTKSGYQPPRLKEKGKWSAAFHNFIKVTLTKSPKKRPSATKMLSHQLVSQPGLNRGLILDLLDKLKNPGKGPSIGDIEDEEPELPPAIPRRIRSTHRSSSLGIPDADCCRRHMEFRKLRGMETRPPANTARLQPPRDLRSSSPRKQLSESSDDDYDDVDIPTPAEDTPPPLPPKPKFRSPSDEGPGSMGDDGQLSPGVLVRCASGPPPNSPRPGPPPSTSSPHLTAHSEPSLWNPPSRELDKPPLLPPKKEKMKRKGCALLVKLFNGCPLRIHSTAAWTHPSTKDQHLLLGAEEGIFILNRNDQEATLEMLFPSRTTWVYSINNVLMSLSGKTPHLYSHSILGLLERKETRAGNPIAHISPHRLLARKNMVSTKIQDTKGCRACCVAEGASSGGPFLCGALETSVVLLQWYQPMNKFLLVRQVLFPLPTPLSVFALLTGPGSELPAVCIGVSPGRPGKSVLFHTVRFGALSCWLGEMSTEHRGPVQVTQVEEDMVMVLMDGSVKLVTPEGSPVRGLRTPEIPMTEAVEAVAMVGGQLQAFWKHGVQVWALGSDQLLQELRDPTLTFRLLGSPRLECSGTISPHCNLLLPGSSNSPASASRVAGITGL
Outline: as §1

[3] = target: T3, LKB1 (Homo sapiens, UniProt Q15831)
T3 construct: purchased Reaction Biology Corp
T3 sequence (Q15831 1-433): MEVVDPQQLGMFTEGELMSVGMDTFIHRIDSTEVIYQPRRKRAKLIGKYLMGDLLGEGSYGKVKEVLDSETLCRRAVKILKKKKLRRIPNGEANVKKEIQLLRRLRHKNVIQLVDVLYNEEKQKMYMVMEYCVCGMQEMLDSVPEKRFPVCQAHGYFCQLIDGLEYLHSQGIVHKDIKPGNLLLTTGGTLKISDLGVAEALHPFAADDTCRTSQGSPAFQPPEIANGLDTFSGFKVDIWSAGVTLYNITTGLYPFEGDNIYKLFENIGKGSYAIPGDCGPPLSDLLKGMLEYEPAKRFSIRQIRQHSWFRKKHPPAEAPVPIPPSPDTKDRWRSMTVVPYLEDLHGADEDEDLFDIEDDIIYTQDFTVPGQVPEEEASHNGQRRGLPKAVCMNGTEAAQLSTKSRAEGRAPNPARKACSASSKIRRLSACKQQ
T3 sequence (Q7RTN6 1-431 partner): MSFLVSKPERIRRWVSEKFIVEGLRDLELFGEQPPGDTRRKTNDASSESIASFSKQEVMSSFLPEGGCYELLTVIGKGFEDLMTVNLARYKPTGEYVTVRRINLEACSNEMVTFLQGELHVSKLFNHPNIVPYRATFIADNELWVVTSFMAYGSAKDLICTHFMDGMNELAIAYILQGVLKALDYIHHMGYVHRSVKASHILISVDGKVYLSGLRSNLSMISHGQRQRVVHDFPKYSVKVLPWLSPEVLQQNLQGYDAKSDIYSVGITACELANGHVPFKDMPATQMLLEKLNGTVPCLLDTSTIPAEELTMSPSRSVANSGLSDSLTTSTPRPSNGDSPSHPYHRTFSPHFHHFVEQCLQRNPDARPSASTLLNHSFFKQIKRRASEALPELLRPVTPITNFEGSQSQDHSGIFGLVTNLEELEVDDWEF
T3 sequence (Q9Y376 1-341 partner): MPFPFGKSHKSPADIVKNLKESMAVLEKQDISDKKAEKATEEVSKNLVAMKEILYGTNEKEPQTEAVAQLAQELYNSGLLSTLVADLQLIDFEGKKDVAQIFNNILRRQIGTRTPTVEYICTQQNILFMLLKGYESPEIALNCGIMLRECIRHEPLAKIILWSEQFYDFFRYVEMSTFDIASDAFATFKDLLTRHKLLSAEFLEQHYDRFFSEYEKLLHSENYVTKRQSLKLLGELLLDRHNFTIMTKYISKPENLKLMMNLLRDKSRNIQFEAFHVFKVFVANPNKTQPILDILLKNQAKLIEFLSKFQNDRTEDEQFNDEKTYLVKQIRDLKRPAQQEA
Outline: as §1

[4] = target: T4, AXL (Homo sapiens, UniProt P30530)
T4 construct: purchased Reaction Biology Corp
T4 sequence (P30530 26-894): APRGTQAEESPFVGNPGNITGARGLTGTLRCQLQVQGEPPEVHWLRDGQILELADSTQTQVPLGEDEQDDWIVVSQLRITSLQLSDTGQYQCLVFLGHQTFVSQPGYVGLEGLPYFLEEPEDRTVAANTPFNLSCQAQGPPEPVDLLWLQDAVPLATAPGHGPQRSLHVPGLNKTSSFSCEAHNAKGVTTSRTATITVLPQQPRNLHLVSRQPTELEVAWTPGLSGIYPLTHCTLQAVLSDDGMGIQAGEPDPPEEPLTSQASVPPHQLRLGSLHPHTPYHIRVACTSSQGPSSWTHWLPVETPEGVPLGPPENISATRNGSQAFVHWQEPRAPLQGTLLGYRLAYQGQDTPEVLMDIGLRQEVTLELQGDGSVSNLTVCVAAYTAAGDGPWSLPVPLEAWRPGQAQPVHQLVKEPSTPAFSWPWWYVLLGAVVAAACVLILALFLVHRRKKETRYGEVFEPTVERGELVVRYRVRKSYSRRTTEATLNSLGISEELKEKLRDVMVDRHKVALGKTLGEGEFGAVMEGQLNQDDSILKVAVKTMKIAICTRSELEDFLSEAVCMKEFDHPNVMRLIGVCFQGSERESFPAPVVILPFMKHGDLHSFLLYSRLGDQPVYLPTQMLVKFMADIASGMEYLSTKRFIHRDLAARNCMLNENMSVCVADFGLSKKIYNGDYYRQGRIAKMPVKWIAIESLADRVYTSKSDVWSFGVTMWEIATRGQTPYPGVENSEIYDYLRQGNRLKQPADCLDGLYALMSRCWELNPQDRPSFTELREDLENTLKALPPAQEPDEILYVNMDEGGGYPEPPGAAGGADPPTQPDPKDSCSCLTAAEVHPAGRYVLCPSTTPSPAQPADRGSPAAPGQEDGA
Outline: as §1

[5] = target: T5, VRK2 (Homo sapiens, UniProt Q86Y07)
T5 construct: purchased Reaction Biology Corp
T5 sequence (Q86Y07 whole entry): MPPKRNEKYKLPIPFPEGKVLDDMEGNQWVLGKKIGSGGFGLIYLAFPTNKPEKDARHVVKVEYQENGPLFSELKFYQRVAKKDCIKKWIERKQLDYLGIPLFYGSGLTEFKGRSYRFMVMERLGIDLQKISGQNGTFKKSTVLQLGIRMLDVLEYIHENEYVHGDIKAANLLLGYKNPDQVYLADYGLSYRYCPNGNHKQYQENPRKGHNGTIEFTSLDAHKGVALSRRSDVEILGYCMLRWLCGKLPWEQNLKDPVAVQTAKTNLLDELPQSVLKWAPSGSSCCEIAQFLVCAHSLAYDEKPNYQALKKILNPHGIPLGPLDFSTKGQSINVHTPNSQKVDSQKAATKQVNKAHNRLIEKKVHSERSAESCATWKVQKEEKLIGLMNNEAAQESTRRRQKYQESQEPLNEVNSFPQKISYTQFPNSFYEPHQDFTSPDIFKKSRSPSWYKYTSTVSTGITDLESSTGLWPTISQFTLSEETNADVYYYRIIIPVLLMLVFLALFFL
Outline: as §1

[6] = target: T6, DAPK2 (Homo sapiens, UniProt Q9UIK4)
T6 construct: purchased Reaction Biology Corp
T6 sequence (Q9UIK4 whole entry): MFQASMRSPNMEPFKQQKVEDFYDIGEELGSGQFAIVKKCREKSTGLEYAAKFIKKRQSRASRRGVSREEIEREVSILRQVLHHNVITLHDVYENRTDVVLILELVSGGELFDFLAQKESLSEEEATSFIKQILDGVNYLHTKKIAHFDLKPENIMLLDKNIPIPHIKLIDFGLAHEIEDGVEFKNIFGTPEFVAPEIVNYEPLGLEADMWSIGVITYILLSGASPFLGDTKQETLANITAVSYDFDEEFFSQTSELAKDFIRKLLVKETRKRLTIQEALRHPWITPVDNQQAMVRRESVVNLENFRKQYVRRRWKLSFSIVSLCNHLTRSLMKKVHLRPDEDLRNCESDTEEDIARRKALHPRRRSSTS
Outline: as §1

[7] = read-out: % Enzyme Activity (relative to DMSO controls) Run 1
[8] = read-out: % Enzyme Activity (relative to DMSO controls) Run 2

T1 sequence (P49759 whole entry): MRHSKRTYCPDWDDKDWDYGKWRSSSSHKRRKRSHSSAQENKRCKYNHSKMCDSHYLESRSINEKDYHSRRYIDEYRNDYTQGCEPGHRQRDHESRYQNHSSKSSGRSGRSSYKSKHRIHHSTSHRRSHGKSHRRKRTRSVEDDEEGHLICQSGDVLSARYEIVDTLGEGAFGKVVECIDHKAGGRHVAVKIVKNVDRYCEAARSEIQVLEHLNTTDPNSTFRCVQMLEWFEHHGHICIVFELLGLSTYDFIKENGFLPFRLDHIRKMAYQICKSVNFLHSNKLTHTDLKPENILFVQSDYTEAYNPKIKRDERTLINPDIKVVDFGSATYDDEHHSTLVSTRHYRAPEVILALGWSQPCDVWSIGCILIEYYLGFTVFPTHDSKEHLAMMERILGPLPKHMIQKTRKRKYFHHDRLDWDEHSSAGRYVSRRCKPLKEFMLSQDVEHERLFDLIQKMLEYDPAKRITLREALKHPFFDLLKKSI

C=CC(=O)Nc1cccc(Nc2nc(Nc3ccc(OCCOC)c(F)c3)ncc2F)c1 [Compound 2]
inhibition at 3 µM [1]: 24.1% | remaining activity at 3 µM [1, 7]: 74.4% | remaining activity at 3 µM [1, 8]: 77.4% | inhibition at 3 µM [2]: 12.9% | remaining activity at 3 µM [2, 7]: 85.8% | remaining activity at 3 µM [2, 8]: 88.4% | inhibition at 3 µM [3]: 2.41% | remaining activity at 3 µM [3, 7]: 99.2% | remaining activity at 3 µM [3, 8]: 95.9% | inhibition at 3 µM [4]: 51.3% | remaining activity at 3 µM [4, 7]: 48.6% | remaining activity at 3 µM [4, 8]: 48.8% | inhibition at 3 µM [5]: 5.06% | remaining activity at 3 µM [5, 7]: 94% | remaining activity at 3 µM [5, 8]: 95.9% | inhibition at 3 µM [6]: -9.89% | remaining activity at 3 µM [6, 7]: 108% | remaining activity at 3 µM [6, 8]: 112%
